Measurements from patent US8273713B2 (Amylin Pharmaceuticals, LLC, priority 2000, dated 2012).
Ends that are not written are not given here.

How the values were obtained:
gastric emptying = test: Gastric emptying in HSD rats (3H-3-O-methyl-glucose gavage); format: in vivo; settings: for effect on gastric emptying: 40 minutes
Description: Male HSD rats, 180-215 g, were housed with a 12:12 hour light:dark cycle and fasted for 20 hrs (overnight). […] At t=1 min, a solution of 1 mL sterile water containing 5 μCi of ^3H-3-O-methyl-glucose was gavaged by oropharyngeal tube to conscious rats. Blood samples (10 μl) were collected 40 min after gavage and assayed for counts per minute (CPM) in plasma. To eliminate pain during tail vein sampling, 2% Lidocaine (0.1 ml) was injected 3-4 cm from the end of the tail (Gedulin, Jodka et al. Gastroenterology 108: […], 1995). Effects of the test compound were expressed as percent change relative to control, which was calculated as -100*(1-(mean value test rats/mean value controls)). Relative activity was defined as significant if p<0.05 as determined by ANOVA. Where a significant difference existed, test means were compared to the control mean using Dunnett's test (Prism v2.01, GraphPad Software Inc., San Diego, Calif.).

food intake = test: Food intake in overnight-fasted NIH/SW mice; format: in vivo; settings: for effect on food intake: 60 min
Description: Female NIH/Swiss mice (8-12 weeks old) were group housed with a 12:12 hour light:dark cycle with lights on at 0600. Water and a standard pelleted mouse chow diet were available ad libitum, except as noted. Animals were fasted and housed individually starting at approximately 1500 hrs, 1 day prior to experiment. The morning of the experiment (approx. 0630 hrs), all animals were weighed and divided into experimental groups so as to give the most similar weight distribution between groups. In a typical study, n=10 for the control group and at least 5 for each treatment group. At time=0 min, all animals were given an intraperitoneal injection of vehicle or compound in a volume of 5 ml/kg and immediately given a pre-weighed amount (10-15 g) of the standard chow. […] Significant treatment effects were identified by ANOVA (p<0.05). Where a significant difference existed, test means were compared to the control mean using Dunnett's test (Prism v2.01, GraphPad Software Inc., San Diego, Calif.).

[1] = given peripherally, dose not given

Row | Substance | effect on gastric emptying (gastric emptying; 200 μg/kg intraperitoneal) | effect on food intake (food intake; 200 μg/kg intraperitoneal) | effect on gastric emptying (gastric emptying; 500 μg/kg intraperitoneal) | effect on food intake (food intake; 100 μg/kg intraperitoneal) | effect on gastric emptying (summary) (gastric emptying; [1]) | effect on food intake (food intake; 500 μg/kg intraperitoneal) | effect on food intake (summary) (food intake; [1])
1 | Ac-PYY[22-36] (Ac-ASLRHYLNLVTRQRY; ends and bridges not checked; listed as Homo sapiens) | inactive | inactive |  |  |  |  | 
2 | NPY[3-36] |  |  | inactive | inactive |  |  | 
3 | Neuropeptide Y [NPY] |  |  | inactive | inactive | completely inactive | trend toward activity | modest decrease in food intake
